Data as given in publication PMC12631574, “Structure–activity relationships of hydrophobic small molecule irreversible inhibitors of tissue transglutaminase” (RSC Medicinal Chemistry, 2025).

Target: T1, tissue transglutaminase (TG2), C-terminal His-tag TG2 (Homo sapiens, UniProt P21980)
T1 construct: host or cells: Novagen Rosetta 2 (DE3) E. coli
T1 sequence (P21980 1-687): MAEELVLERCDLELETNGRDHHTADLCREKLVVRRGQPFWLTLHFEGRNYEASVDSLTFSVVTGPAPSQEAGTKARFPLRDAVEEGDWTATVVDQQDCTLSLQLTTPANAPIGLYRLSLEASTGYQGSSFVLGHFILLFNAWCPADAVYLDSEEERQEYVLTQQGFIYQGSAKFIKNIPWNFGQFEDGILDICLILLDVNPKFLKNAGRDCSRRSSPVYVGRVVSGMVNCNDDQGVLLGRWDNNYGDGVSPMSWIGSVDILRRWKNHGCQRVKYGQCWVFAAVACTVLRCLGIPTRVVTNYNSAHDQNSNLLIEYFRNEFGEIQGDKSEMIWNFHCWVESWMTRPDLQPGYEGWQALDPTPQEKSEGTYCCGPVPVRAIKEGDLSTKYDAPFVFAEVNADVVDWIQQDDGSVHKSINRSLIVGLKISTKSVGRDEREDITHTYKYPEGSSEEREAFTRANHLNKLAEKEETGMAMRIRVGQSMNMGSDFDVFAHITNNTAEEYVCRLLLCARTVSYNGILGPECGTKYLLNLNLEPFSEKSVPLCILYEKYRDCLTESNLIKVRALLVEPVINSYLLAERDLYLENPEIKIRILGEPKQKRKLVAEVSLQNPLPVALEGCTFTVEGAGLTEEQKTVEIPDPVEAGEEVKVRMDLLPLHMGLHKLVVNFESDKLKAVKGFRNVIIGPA
Assay: continuous AL5 hydrolysis assay of irreversible TG2 inhibition (kobs vs [I]/α)
Format: biochemical

[1] = irreversible inhibition, AL5 100 μM, pH 6.9, 25 °C, triplicate
[2] = supplement, kinetics data and fitting

| Structure (SMILES) | kinact [s⁻¹] | KI (inactivation) [1] [µM] | KI (inactivation) [2] [µM] | kinact/KI [2] |
| --- | --- | --- | --- | --- |
| C=CC(=O)NCC(=O)N1CCN(C(=O)c2cccc(-c3ccccc3)c2)CC1 [Compound 7b, N-2-[4-[((3-Biphenyl)carbonyl)-1-piperazinyl]-2-oxoethyl]propenamide] | 0.0118 | 5.3 ± 1.4 | 5.29 ± 1.39 | 133.9 ± 38.4 × 103 M-1min-1 |
| C=CC(=O)NCC(=O)N1CCN(C(=O)C2CC2)CC1 [Compound 6a, N-2-[4-[(Cyclopropanecarbonyl)-1-piperazinyl]-2-oxoethyl]propenamide] | 0.00593 | 23.5 ± 6.5 | 23.5 ± 6.5 | 15.2 ± 4.6 × 103 M-1min-1 |
| C=CC(=O)NCC(=O)N1CCN(C(=O)C2CCCCC2)CC1 [Compound 6d, N-2-[4-[(Cyclohexanecarbonyl)-1-piperazinyl]-2-oxoethyl]propenamide] | 0.0177 | 7.1 ± 1.3 | 7.14 ± 1.34 | 149 ± 31 × 103 M-1min-1 |
| C=CC(=O)NCC(=O)N1CCN(C(=O)c2ccccc2)CC1 [Compound 6f, N-2-[4-[(Benzoyl)-1-piperazinyl]-2-oxoethyl]propenamide] | 0.00827 | 8.1 ± 2.5 | 8.12 ± 2.47 | 61.1 ± 20.0 × 103 M-1min-1 |
| C=CC(=O)NCC(=O)N1CCN(C(=O)c2ccc(-c3cccc(C)c3)cc2)CC1 [Compound 21h, N-2-[4-[((3′-Methyl-4-biphenyl)carbonyl)-1-piperazinyl]-2-oxoethyl]propenamide] | 0.0148 | 38.9 ± 17.7 | 38.9 ± 17.7 | 22.8 ± 11.7 × 103 M-1min-1 |
| C=CC(=O)NCC(=O)N1CCN(C(=O)C2CCCCCC2)CC1 [Compound 6e, N-2-[4-[(Cycloheptanecarbonyl)-1-piperazinyl]-2-oxoethyl]propenamide] | 0.0099 | 21.5 ± 11 | 21.5 ± 11 | 27.6 ± 16.1 × 103 M-1min-1 |
| C=CC(=O)NCC(=O)N1CCN(C(=O)c2cccc(-c3ccc(C)cc3)c2)CC1 [Compound 21f, N-2-[4-[((4′-Methyl-3-biphenyl)carbonyl)-1-piperazinyl]-2-oxoethyl]propenamide] | 0.0092 | 2.3 ± 0.6 | 2.29 ± 0.66 | 241 ± 74 × 103 M-1min-1 |
| C=CC(=O)NCC(=O)N1CCN(C(=O)c2cccc(Nc3ccccc3)c2)CC1 [Compound 22f, N-2-[4-[(((3-Phenylamino)phenyl)carbonyl)-1-piperazinyl]-2-oxoethyl]propenamide] | 0.0165 | 31.7 ± 8.6 | 31.7 ± 8.6 | 31.2 ± 10.0 × 103 M-1min-1 |
| C=CC(=O)NCC(=O)N1CCN(C(=O)c2ccccc2-c2ccc(C)cc2)CC1 [Compound 21c, N-2-[4-[((4′-Methyl-2-biphenyl)carbonyl)-1-piperazinyl]-2-oxoethyl]propenamide] | 0.00807 | 8.3 ± 2.1 | 8.28 ± 2.08 | 58.5 ± 16.2 × 103 M-1min-1 |
| C=CC(=O)NCC(=O)N1CCN(C(=O)c2ccc(Cc3ccccc3)cc2)CC1 [Compound 22g, N-2-[4-[((4-Benzylphenyl)carbonyl)-1-piperazinyl]-2-oxoethyl]propenamide] | 0.0253 | 58.1 ± 9.4 | 58.1 ± 9.4 | 26.1 ± 4.9 × 103 M-1min-1 |
| C=CC(=O)NCC(=O)N1CCN(C(=O)c2ccccc2-c2ccccc2C)CC1 [Compound 21a, N-2-[4-[((2′-Methyl-2-biphenyl)carbonyl)-1-piperazinyl]-2-oxoethyl]propenamide] | 0.00955 | 4.8 ± 1 | 4.85 ± 1.02 | 118 ± 27 × 103 M-1min-1 |
| C=CC(=O)NCC(=O)N1CCN(C(=O)C2CCCC2)CC1 [Compound 6c, N-2-[4-[(Cyclopentanecarbonyl)-1-piperazinyl]-2-oxoethyl]propenamide] | 0.00868 | 13 ± 1.6 | 13 ± 1.6 | 40.0 ± 5.3 × 103 M-1min-1 |
| C=CC(=O)NCC(=O)N1CCN(C(=O)c2ccccc2Cc2ccccc2)CC1 [Compound 22a, N-2-[4-[((2-Benzylphenyl)carbonyl)-1-piperazinyl]-2-oxoethyl]propenamide] | 0.0146 | 14.2 ± 3.3 | 14.2 ± 3.3 | 61.3 ± 15.9 × 103 M-1min-1 |
| C=CC(=O)NCC(=O)N1CCN(C(=O)c2ccccc2-c2cccc(C)c2)CC1 [Compound 21b, N-2-[4-[((3′-Methyl-2-biphenyl)carbonyl)-1-piperazinyl]-2-oxoethyl]propenamide] | 0.00902 | 2.6 ± 0.7 | 2.64 ± 0.72 | 205 ± 60 × 103 M-1min-1 |
| C=CC(=O)NCC(=O)N1CCN(S(=O)(=O)C23CC4CC(CC(C4)C2)C3)CC1 [Compound 38, N-[2-(4-((Adamantan-1-yl)sulfonyl)piperazin-1-yl)-2-oxoethyl]propenamide] | 0.0162 | 7.56 ± 1.87 | 7.56 ± 1.87 | 129 ± 36 × 103 M-1min-1 |
| C=CC(=O)NCC(=O)N1CCN(C(=O)C23CC4CC(CC(F)(C4)C2)C3)CC1 [Compound 25a, N-2-[4-[(3-Fluoroadamantanecarbonyl)-1-piperazinyl]-2-oxoethyl]propenamide] | – | 3.15 ± 0.33 | 3.15 ± 0.33 | – |
| C=CC(=O)NCC(=O)N1CCN(C(=O)c2cccc(-c3cccc(C)c3)c2)CC1 [Compound 21e, N-2-[4-[((3′-Methyl-3-biphenyl)carbonyl)-1-piperazinyl]-2-oxoethyl]propenamide] | 0.0104 | 4.4 ± 2.8 | 4.42 ± 2.83 | 141 ± 98 × 103 M-1min-1 |
| C=CC(=O)NCC(=O)N1CCN(C(=O)c2ccc(-c3ccccc3)cc2)CC1 [Compound 7c, N-2-[4-[((4-Biphenyl)carbonyl)-1-piperazinyl]-2-oxoethyl]propenamide] | 0.0118 | 41.1 ± 32.2 | 41.1 ± 32.3 | 17.2 ± 15.5 × 103 M-1min-1 |
| C=CC(=O)NCC(=O)N1CCN(C(=O)c2ccc(Nc3ccccc3)cc2)CC1 [Compound 22i, N-2-[4-[(((4-Phenylamino)phenyl)carbonyl)-1-piperazinyl]-2-oxoethyl]propenamide] | 0.0255 | 92.8 ± 43.3 | 92.8 ± 43.3 | 16.5 ± 9.4 × 103 M-1min-1 |
| C=CC(=O)NCC(=O)N1CCN(C(=O)c2ccccc2-c2ccccc2)CC1 [Compound 7a, N-2-[4-[((2-Biphenyl)carbonyl)-1-piperazinyl]-2-oxoethyl]propenamide] | 0.00958 | 3.2 ± 1 | 3.23 ± 1.14 | 178.0 ± 68.6 × 103 M-1min-1 |
| C=CC(=O)NCC(=O)N1CCN(C(=O)c2cccc(Oc3ccccc3)c2)CC1 [Compound 22e, N-2-[4-[((3-Phenoxyphenyl)carbonyl)-1-piperazinyl]-2-oxoethyl]propenamide] | 0.0223 | 11.9 ± 4 | 11.9 ± 4 | 112 ± 41 × 103 M-1min-1 |
| C=CC(=O)NCC(=O)N1CCN(C(=O)c2ccccc2Oc2ccccc2)CC1 [Compound 22b, N-2-[4-[((2-Phenoxyphenyl)carbonyl)-1-piperazinyl]-2-oxoethyl]propenamide] | 0.0143 | 9.1 ± 0.8 | 9.06 ± 0.8 | 94.8 ± 9.0 × 103 M-1min-1 |
| C=CC(=O)NCC(=O)N1CCN(C(=O)c2cccc(Cc3ccccc3)c2)CC1 [Compound 22d, N-2-[4-[((3-benzylphenyl)carbonyl)-1-piperazinyl]-2-oxoethyl]propenamide] | 0.0168 | 8.8 ± 2.7 | 8.84 ± 2.72 | 114 ± 38 × 103 M-1min-1 |
| C=CC(=O)NCC(=O)N1CCN(C(=O)c2ccc(-c3ccccc3C)cc2)CC1 [Compound 21g, N-2-[4-[((2′-Methyl-4-biphenyl)carbonyl)-1-piperazinyl]-2-oxoethyl]propenamide] | 0.0217 | 54.1 ± 14.6 | 54.1 ± 14.6 | 24.1 ± 7.3 × 103 M-1min-1 |
| C=CC(=O)NCC(=O)N1CCN(C(=O)c2cccc(-c3ccccc3C)c2)CC1 [Compound 21d, N-2-[4-[((2′-Methyl-3-biphenyl)carbonyl)-1-piperazinyl]-2-oxoethyl]propenamide] | 0.012 | 1.1 ± 0.1 | 1.13 ± 0.099 | 636 ± 58 × 103 M-1min-1 |
| C=CC(=O)NCC(=O)N1CCN(C(=O)C2CCC2)CC1 [Compound 6b, N-2-[4-[(Cyclobutanecarbonyl)-1-piperazinyl]-2-oxoethyl]propenamide] | 0.00842 | 20.2 ± 3.5 | 20.2 ± 3.5 | 25.0 ± 4.7 × 103 M-1min-1 |
| C=CC(=O)NCC(=O)N1CCN(C(=O)c2ccccc2Nc2ccccc2)CC1 [Compound 22c, N-2-[4-[(((2-Phenylamino)phenyl)carbonyl)-1-piperazinyl]-2-oxoethyl]propenamide] | 0.0119 | 6.4 ± 0.7 | 6.38 ± 0.7 | 112 ± 14 × 103 M-1min-1 |
